# Assay results reported in US20100292214A1, “Compounds with Antiparasitic Activity, Applications thereof to the Treatment of Infectious Diseases Caused by Apicomplexans” (commissariat a l'Energie Atomique, priority 2007, published 2010).
# Structures can show the parent of a compound that is named as a salt. Where two headings read alike, the source gives them in different places.
# Columns and labels:
# [1] = test system: Toxoplasma gondii RH-β1 strain; test: microbe, parasite or virus in culture; type: cell-based; details: Toxoplasma gondii, read-out: IC50 assessed on Toxoplama Gondii
# [2] = test system: asynchronous 3D7 chloroquine-sensitive P. falciparum infected red blood cells; test: Labeled hypoxanthine incorporation assay (in vitro anti-malarial activity); type: cell-based; details: Plasmodium falciparum, 3D7, Erythrocyte, read-out: IC50 assessed on Plasmodium Falciparum
# [3] = 3D7 chloroquine-sensitive strain, infected RBC, 48 h contact, [3H]-hypoxanthine incorporation, two independent experiments in duplicates
SMILES,IC50 [1],"IC50 [2, 3]",IC50 [2]
"C[C@@H](COC(=O)N1CCC(n2c(=O)[nH]c3ccccc32)CC1)N(Cc1ccccc1)Cc1cccc(OCc2ccccc2)c1 [Compound 136, (S)-2-(benzyl(3-(benzyloxy)benzyl)amino)propyl 4-(2-oxo-2,3-dihydro-1H-benzo[d]imidazol-1-yl)piperidine-1-carboxylate hydrochloride]",0.8 µM,1.6 µM,–
"C[C@@H](COC(=O)N1CCC(n2c(=O)[nH]c3ccccc32)CC1)N(Cc1ccccc1)Cc1cc2ccccc2c2ccccc12 [Compound 137, (S)-2-(benzyl(phenanthren-9-ylmethyl)amino)propyl 4-(2-oxo-2,3-dihydro-1H-benzo[d]imidazol-1-yl)piperidine-1-carboxylate hydrochloride]",0.7 µM,1.61 µM,–
"C[C@@H](COC(=O)N1CCC(n2c(=O)[nH]c3ccccc32)CC1)N(Cc1ccccc1)Cc1cccc2ccccc12 [Compound 138, (S)-2-(benzyl(naphthalen-1-ylmethyl)amino)propyl 4-(2-oxo-2,3-dihydro-1H-benzo[d]imidazol-1-yl)piperidine-1-carboxylate hydrochloride]",3.75 µM,2.55 µM,–
"C[C@@H](COC(=O)N1CCC(n2c(=O)[nH]c3ccccc32)CC1)N(Cc1ccccc1)Cc1cccs1 [Compound 139, (S)-2-(benzyl(thiophen-2-ylmethyl)amino)propyl 4-(2-oxo-2,3-dihydro-1H-benzo[d]imidazol-1-yl)piperidine-1-carboxylate hydrochloride]",5 µM,3.41 µM,–
"C[C@@H](COC(=O)N1CCC(n2c(=O)[nH]c3ccccc32)CC1)N(Cc1ccccc1)Cc1ccccn1 [Compound 140, (S)-2-(benzyl(pyridin-2-ylmethyl)amino)propyl 4-(2-oxo-2,3-dihydro-1H-benzo[d]imidazol-1-yl)piperidine-1-carboxylate hydrochloride]",1.8 µM,3.86 µM,–
"O=C(OCCCN(Cc1ccccc1)Cc1cccs1)N1CCC(n2c(=O)[nH]c3ccccc32)CC1 [Compound 141, 3-(benzyl(thiophen-2-ylmethyl)amino)propyl 4-(2-oxo-2,3-dihydro-1H-benzo[d]imidazol-1-yl)piperidine-1-carboxylate hydrochloride]",4 µM,4.17 µM,–
"O=C(OCCCN(Cc1ccccc1)Cc1cccc(Cl)c1)N1CCC(n2c(=O)[nH]c3ccccc32)CC1 [Compound 142, 3-(benzyl(3-chlorobenzyl)amino)propyl 4-(2-oxo-2,3-dihydro-1H-benzo[d]imidazol-1-yl)piperidine-1-carboxylate hydrochloride]",1.2 µM,2.92 µM,–
"O=C(OCCCN(Cc1ccccc1)Cc1cccc2ccccc12)N1CCC(n2c(=O)[nH]c3ccccc32)CC1 [Compound 144, 3-(benzyl(naphthalen-1-ylmethyl)amino)propyl 4-(2-oxo-2,3-dihydro-1H-benzo[d]imidazol-1-yl)piperidine-1-carboxylate hydrochloride]",2.7 µM,3.24 µM,–
"O=C(OCCCN(Cc1ccccc1)Cc1ccnc2ccccc12)N1CCC(n2c(=O)[nH]c3ccccc32)CC1 [Compound 145, 3-(benzyl(quinolin-4-ylmethyl)amino)propyl 4-(2-oxo-2,3-dihydro-1H-benzo[d]imidazol-1-yl)piperidine-1-carboxylate hydrochloride]",3.3 µM,0.731 µM,–
"O=C(OCCCN(Cc1ccccc1)Cc1cccc(Oc2ccccc2)c1)N1CCC(n2c(=O)[nH]c3ccccc32)CC1 [Compound 146, 3-(benzyl(3-phenoxybenzyl)amino)propyl 4-(2-oxo-2,3-dihydro-1H-benzo[d]imidazol-1-yl)piperidine-1-carboxylate hydrochloride]",1.5 µM,1.96 µM,–
"COc1cccc(CN(CCCOC(=O)N2CCC(n3c(=O)[nH]c4ccccc43)CC2)Cc2ccccc2)c1 [Compound 149, 3-(benzyl(3-methoxybenzyl)amino)propyl 4-(2-oxo-2,3-dihydro-1H-benzo[d]imidazol-1-yl)piperidine-1-carboxylate hydrochloride]",3.5 µM,0.588 µM,–
"O=C(OCCN(Cc1ccccc1)Cc1ccc(Cl)cc1)N1CCC(n2c(=O)[nH]c3ccccc32)CC1 [Compound 150, 2-(benzyl(4-chlorobenzyl)amino)ethyl 4-(2-oxo-2,3-dihydro-1H-benzo[d]imidazol-1-yl)piperidine-1-carboxylate]",1.5 µM,2.59 µM,–
"O=C(OC[C@H](Cc1ccccc1)N(Cc1ccccc1)Cc1ccccc1)N1CCC(Nc2ccccc2)CC1 [Compound 152, (S)-2-(dibenzylamino)-3-phenylpropyl 4-(phenylamino)piperidine-1-carboxylate]",3.8 µM,–,0.922 µM
"C[C@@H](COC(=O)N1CCC(n2c(-c3ccccc3)nc3ccccc32)CC1)N(Cc1ccccc1)Cc1ccccc1 [Compound 153, (S)-2-(dibenzylamino)propyl 4-(2-phenyl-1H-benzo[d]imidazol-1-yl)piperidine-1-carboxylate]",3.75 µM,2.33 µM,–
"C[C@@H](COC(=O)N1CCC(N(c2ccccc2)S(=O)(=O)c2ccc(F)cc2)CC1)N(Cc1ccccc1)Cc1ccccc1 [Compound 155, (S)-2-(dibenzylamino)propyl 4-(N-phenyl-4-fluorophenylsulfonamido)piperidine-1-carboxylate]",0.8 µM,0.617 µM,–
"COc1ccc(S(=O)(=O)N(c2ccccc2)C2CCN(C(=O)OC[C@H](C)N(Cc3ccccc3)Cc3ccccc3)CC2)cc1 [Compound 156, (S)-2-(dibenzylamino)propyl 4-(N-phenyl-4-methoxyphenylsulfonamido)piperidine-1-carboxylate]",4 µM,0.783 µM,–
"C[C@@H](COC(=O)N1CCC(N(c2ccccc2)S(=O)(=O)c2cccs2)CC1)N(Cc1ccccc1)Cc1ccccc1 [Compound 159, (S)-2-(dibenzylamino)propyl 4-(N-phenylthiophen-2-ylsulfonamido)piperidine-1-carboxylate]",1 µM,0.861 µM,–
"C[C@@H](COC(=O)N1CCC(N(c2ccccc2)S(=O)(=O)c2cccc3cccnc23)CC1)N(Cc1ccccc1)Cc1ccccc1 [Compound 160, (S)-2-(dibenzylamino)propyl 4-(N-phenylquinolin-8-ylsulfonamido)piperidine-1-carboxylate]",2.7 µM,1.06 µM,–
"C[C@@H](COC(=O)N1CCC(N(C(=S)Nc2ccccc2)c2ccccc2)CC1)N(Cc1ccccc1)Cc1ccccc1 [Compound 165, (S)-2-(dibenzylamino)propyl 4-(1,3-diphenylthioureido)piperidine-1-carboxylate]",3 µM,1.25 µM,–
"Cc1ccccc1S(=O)(=O)N(c1ccccc1)C1CCN(C(=O)OC[C@H](C)N(Cc2ccccc2)Cc2ccccc2)CC1 [Compound 167, (S)-2-(dibenzylamino)propyl 4-(N-phenyl-2-methylphenylsulfonamido)piperidine-1-carboxylate]",3.9 µM,0.338 µM,–
"Cc1cccc(S(=O)(=O)N(c2ccccc2)C2CCN(C(=O)OC[C@H](C)N(Cc3ccccc3)Cc3ccccc3)CC2)c1 [Compound 168, (S)-2-(dibenzylamino)propyl 4-(N-phenyl-3-methylphenylsulfonamido)piperidine-1-carboxylate]",2.9 µM,0.483 µM,–
"C[C@@H](COC(=O)N1CCC(N(c2ccccc2)S(=O)(=O)c2cccc(C(F)(F)F)c2)CC1)N(Cc1ccccc1)Cc1ccccc1 [Compound 169, (S)-2-(dibenzylamino)propyl 4-(N-phenyl-3-(trifluoromethyl)phenylsulfonamido)piperidine-1-carboxylate]",3.2 µM,0.553 µM,–
"C[C@@H](COC(=O)N1CCC(N(c2ccccc2)S(=O)(=O)c2cccc3c(N(C)C)cccc23)CC1)N(Cc1ccccc1)Cc1ccccc1 [Compound 172, (S)-2-(dibenzylamino)propyl 4-(N-phenyl-(5-dimethylamino)naphthalen-1-ylsulfonamido)piperidine-1-carboxylate]",0.212 µM,0.314 µM,–
"Oc1cc(Cl)ccc1Oc1ccc(Cl)cc1Cl [Triclosan, reference compound]",0.32 µM,–,1.55 µM
